The subject of data set [1] is Dd2 PfATP4 NITD609. Nature of the data set: [3H]-hypoxanthine incorporation assay, Dd2 PfATP4 NITD609 resistant. Type of data set: cell-based. Particulars: Plasmodium falciparum. The method, then:
(§1) Supplementary Table 3: Compound 9 and 12 retain their activity against Pf strains harbouring mutations to novel antimalarial agents in clinical development. Compound 9 and 12 were tested for their antiplasmodial activity against a panel of Pf strains known to harbour mutations conferring resistance to novel agents under clinical development. Parasite growth inhibition is measured using the [3H]-hypoxanthine incorporation assay. IC50s are established for each strain (n ≥2) and compared to the IC50 of Dd2 (standard pan-resistant […]

A short description of data set [2]: Caco2 permeability. Particulars: human, Caco-2.
Data set [3] concerns Dd2 DHODH DSM265. Nature of the data set: [3H]-hypoxanthine incorporation assay, Dd2 DHODH DSM265 resistant. Type of data set: cell-based. The note with it: Plasmodium falciparum. How it is done: as §1
Data set [4] relates to Dd2-6R F4 D4. Nature of the data set: SYBR green growth assay, Dd2-6R F4 D4. The note with it: Plasmodium falciparum.
Description: (§2) Assays were carried out in 384-well format with three technical replicates within an assay day and biological replicates carried out on three different assay days to assign a final EC50.
(§3) The drug was then washed off and the parasites were allowed to recover in normal growth media.
A short description of data set [5]: Plasma protein binding, mouse.
Data set [6] is described as follows: Blood-plasma ratio, rat. Format: in vitro ADME. An excerpt: Supplementary Note 5: Prediction of human clearance for compound 12 by IVIVE.
Human clearance (CL) was predicted by in vitro-in vivo extrapolation (IVIVE) from the in vitro Clint in human hepatocytes6. In vitro Clint was scaled to in vivo Clint as follows:
Clint in vivo = Clint in vitro * scaling factors * fublood/fuinc
The liver weights used for scaling were 40, 32 and 24 g/kg body weight in rat, dog and human respectively. Hepatocellularity used for scaling was 163, 169 and 120 (X 106) cells/g liver in rat, dog and human respectively. Free fraction in blood was calculated as fuplasma /Blood:Plasma (BP) ratio. BP ratio and free fraction in the hepatocyte incubation mix, fuinc, were measured in vitro. Slope and intercept from the linear regression analysis of IVIVC for a large number of AstraZeneca compounds was applied for final correction in the scaled in vivo Clint. A well stirred model was used for CL prediction.
Where Qh is the liver blood flow. The values of Qh in rat, dog and human are 72, 55 and 20 mL.min-1kg-1 in rat, dog and human, respectively. In vitro parameters, observed in vivo CL and predicted CL are shown in supplementary Table 10. […]
(also on this page, place not known: in vivo in vivo CLintQ CLintQCL Predicted predicted predicted h h + ×=)
(1 picture or pasted object on this page, not shown here)

For data set [7], the system named is Dd2-6R F2 D8. Nature of the data set: SYBR green growth assay, Dd2-6R F2 D8. Particulars: Plasmodium falciparum.
Description: as §2, §3
The nature of data set [8]: PK in the blood of infected Pf/SCID mice. Type of data set: in vivo, mouse. The method, then:
Peripheral blood samples (25 μl) were taken at different times (0.25, 0.5, 1, 2, 4, 6, 8 and 23 h), mixed with 25 μl of H2O Mili-Q and immediately frozen on dry ice. The frozen samples were stored at −80 °C until analysis. Vehicle-treated mice experienced the same blood-sampling regimen. Blood samples were processed by liquid–liquid extraction by mixing 10 μl diluted blood with 180 μl AcN:MeOH (80:20; v-v) mixture. Quantitative analysis by Liquid chromatography-tandem mass spectrometry (LC-MS/MS) was performed using UPLC (Waters) and Sciex API4000. The lower limit of quantification in this assay was 0.005 μg ml^−1.

Data set [9] deals with Dd2. Nature of the data set: [3H]-hypoxanthine incorporation assay, Dd2. Type of data set: cell-based, Plasmodium falciparum. The note with it: Plasmodium falciparum, DD2. How it is done: 9 and 12 were tested for their antiplasmodial activity against a panel of Pf strains known to harbour mutations conferring resistance to novel agents under clinical development. Parasite growth inhibition is measured using the [3H]-hypoxanthine incorporation assay. IC50s are established for each strain (n ≥2) and compared to the IC50 of Dd2 (standard pan-resistant

The test system of data set [10] is Pf3D7^0087/N9. Nature of the data set: animal or person. Format: in vivo, Plasmodium falciparum. From the text: All animal studies were ethically reviewed and carried out in accordance with European Directive 86/609/EEC and the GSK Policy on the Care, Welfare and Treatment of Animals. During this experiment, female mice were used from the batch NSGJ 01/1 (The Jackson Laboratory, USA). The therapeutic efficacy of compound 12 against Pf3D7^0087/N9 was studied using a ‘4-day test’ reported earlier. Briefly, NODscidIL2Rγ^null mice engrafted with human erythrocytes were infected with 20 × 10^6 Pf-infected erythrocytes. Infections were performed by i.v. inoculation. All mice were randomly assigned to their corresponding treatment. The treatment started at day 3 and finished at day 6 after infection. The compound was administered orally as a suspension in 0.5% w/v hydroxypropyl methylcellulose (HPMC) with 0.1% v/v Tween 80, using an oral gavage at a maximum dose volume of 20 ml kg^−1. Vehicle alone was administered in untreated mice. In all cases, parasitemia was assessed in samples from peripheral blood obtained at days 3–7 after infection. A qualitative analysis of the effect of treatment on Pf3D7^0087/N9 was assessed by microscopy and flow cytometry. Fresh samples of peripheral blood from Pf-infected mice were stained with TER-119-Phycoerythrine (marker of murine erythrocytes) and SYTO-16 (nucleic acid dye) and then analysed by flow cytometry (FACS Calibur, BD). Microscopy analysis was performed with Giemsa-stained blood smears from samples taken at days 5 and 7 (48 and 96 h after starting treatment, respectively).
PK-PD model for the metabolite (compound 9) alone. Pharmacokinetic data from the Pf/SCID model was linked to efficacy using the following equation5.
Where P [log (total no. of parasites / mouse)], Kgro (growth rate constant), Pmax (log (maximum no. of parasites / mouse)), Kkill (maximum kill rate constant), H (Hill slope), EC50 (concentration required for achieving half maximal kill rate) and Ce (concentration of the drug in the effect compartment). Percent parasitemia values were converted into total number of parasites in mouse blood assuming […] (9.23 log10) RBCs per mouse. The lower limit of quantitation for % parasitemia was 0.01% or 5.23 log10. Effect compartment was used for modelling the delay observed in efficacy at a lower dose. […]

Data set [11] can be described thus: 3-day rat tolerability study of compound 2. Format: in vivo. How it is done:
Protein binding (human free) […]
μM Cmax (total). Consequently, compound 2 was classified as having no therapeutic window preclinically in this model.
Rat 3 Day Toxicology Study: Male Han Wister rats (n=4) received compound 2 at dose levels of 100 or 300 mg/kg for three days (AstraZeneca, Waltham, USA).
One animal was found dead, and one considered moribund on the morning of Day 4, before

By IC50 is commonly meant the concentration at which inhibition is half-maximal. As a reminder, the Papp A→B is the apparent permeability from the apical to the basolateral side of a cell layer. The low end stands for poor permeation, the high end for ready permeation. What is called fraction unbound is the share of the substance not bound to proteins or other matrix. A lower fraction unbound goes with extensive binding. Usually CL/F stands for clearance divided by bioavailability, as obtained after extravascular dosing. Broadly, the EC50 is the concentration needed to bring the measured effect to its halfway point. The low end stands for higher potency in that assay, the high end for lower potency in that assay. Turning to `Cc1nc(Nc2ncc(N3CCN(C)[C@H](C)C3)c(Nc3cc(C)n(C)n3)n2)cc(C2CC2)c1F` [compound 12, (R)-N2-(4-cyclopropyl-5-fluoro-6-methylpyridin-2-yl)-N4-(1,5-dimethyl-1H-pyrazol-3-yl)-5-(3,4-dimethylpiperazin-1-yl)pyrimidine-2,4-diamine], the IC50 in [1] amounted to 6.8 nM; in data set [3], 6.5 nM; in data set [4], 81.6 nM; in data set [7] it was 69.6 nM; in [9], 3.5 nM. For the same compound, the Papp A→B in [2] is 25 ×10⁻⁶ cm/s. Further, the fraction unbound in data set [5] (Plasma protein binding (% free)) came out at 0.0055; in [5] (Plasma protein binding, Plasma fu, fraction unbound) it was 0.005. Besides, the “B:P ratio” value in data set [6] is given as 1.65. The CL/F in data set [8] (SCID, mouse, whole blood, oral, parent, Fixed) was 650 mL/min/kg. For the same compound, in [8] (at 40 mg kg^−1), the “Blood Cmin (minimum parasiticidal concentration, MPC)” value came out at 0.04 µM. Also, the Ka in data set [8] (parent, Fixed) came out at 1 h⁻¹. The Ke0 in data set [8] (parent, Fixed) stood at 0.06 h⁻¹. In [8] (parent, Fixed), the Vc/F stood at 462 L/kg. In addition, the “clearance of Pf parasites” value in [10] (4 days of daily treatment, 20 mg kg^−1, oral) is listed as “below detection limit”. A half-maximal effect in data set [10] (Plasmodium falciparum, in Mus musculus) (EC50) was put at 38 nM. Further, in data set [10] (mouse model of Pf malaria), the ED99 was under 30 mg/kg. The “dose at which maximum kill rate was observed” value in data set [10] (oral, 4-day test) was found to be 40 mg/kg. Moreover, the Kkill in data set [10] (parent, model predicted estimate) was 0.097 h⁻¹.
For `Cc1cc(Nc2ncc(N3CCN(C)CC3)c(N3CCCC3)n2)ccn1` [compound 2], in data set [11] (100 mg/kg oral), the “A - Plasma Cmax Total” value is recorded as 8.13 µM; the “Safety Margin (A / B)” value was “None”; the “Summary of clinical signs and effects” value is “Non-specific toxicity”. In data set [11] (300 mg/kg oral), the “A - Plasma Cmax Total” value came to 19.18 µM; the “Safety Margin (A / B)” value was “None”; the “Summary of clinical signs and effects” value is given as “Premature decedents”.

The record behind these values is publication PMC4389225, “Triaminopyrimidine is a fast-killing and long-acting antimalarial clinical candidate” (Nature Communications, 2015).
